pIC50: −log10 of the molar value.
Experiments:
[1] = tested on: Nucleic Acid; assay: Ability to inhibit the formation of the U1A-stem loop 2 RNA complex using gel mobility shift assay; format: nucleic-acid assay
[2] = Ability to inhibit formation of the TatTAR complex by binding to the closing GC or CG base pair and adjacent nucleotides of loops in the TAR RNA.
[3] = tested on: Nucleic Acid; assay: Ability to inhibit the […]-RNA complex formation; format: nucleic-acid assay

pIC50 [1]	pIC50 [2]	pIC50 [3]	SMILES
2.00	5.00		Nc1nc(N)c2c(N)c(N)ccc2n1
6.00	4.66	6.00	COc1ccc2nc3cc(Cl)ccc3c(NCCCN(CCCN)CCCCN)c2c1
